Experiments:
[1] = biological target: T1, human histamine H4 receptor (Homo sapiens, UniProt Q9H3N8); assay: Evaluation of H4 Receptor Function ([35S]GTPγS binding); type: biochemical; conditions: [35S]GTPγS binding, CHO-K1 membrane, 0.1 μM histamine; read-out: Evaluation of H4 Receptor Function (IC50 value, antagonistic effect)
T1 construct: purchased PerkinElmer Inc; host or cells: CHO-K1
Method: The antagonistic effect was evaluated by the method described below. Membrane preparation from recombinant CHO-K1 cell expressing the human histamine H4 receptor (PerkinElmer Inc.), 10 μM GDP, 0.1 μM histamine, and the compounds dissolved in DMSO were reacted at 30° C. for 20 minutes in a buffering solution containing 20 mM HEPES, pH 7.4, 100 mM NaCl, 10 mM MgCl2, 1 mM DTT, and 1 mM EDTA on an assay plate. Thereafter, SPA beads (Amersham plc) were added, followed by incubation for 60 minutes, and further 0.3 nM [^35S]GTPγS (PerkinElmer Inc.) was added, followed by incubation for 30 minutes.

[2] = biological target: T1, human histamine H4 receptor; assay: Evaluation of Human H4 Receptor Affinity ([3H]histamine binding); conditions: inhibition constant Ki, CHO-K1 membrane preparation, read-out: Evaluation of H4 Receptor Affinity
Procedure, shortened: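 Radioligand displacement: compound competes with 8.2 nM [3H]histamine at recombinant human H4 receptor in CHO-K1 membranes (Tris-HCl 50 mM pH 7.4, EDTA 1.25 mM; 25 °C, 90 min), with filter-bound radioactivity counted. IC50 was converted to Ki via Cheng-Prusoff (Kd 5.7 nM); 1.0 μM histamine set nonspecific binding.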

[3] = biological target: T2, human histamine H1 receptor (Homo sapiens, UniProt P35367); assay: Evaluation of Human H1 Receptor Affinity ([3H]pyrilamine binding); set-up: purchased PerkinElmer Inc; host or cells: CHO-K1; conditions: inhibition constant Ki, CHO-K1 membrane preparation
T2 sequence (P35367 whole entry): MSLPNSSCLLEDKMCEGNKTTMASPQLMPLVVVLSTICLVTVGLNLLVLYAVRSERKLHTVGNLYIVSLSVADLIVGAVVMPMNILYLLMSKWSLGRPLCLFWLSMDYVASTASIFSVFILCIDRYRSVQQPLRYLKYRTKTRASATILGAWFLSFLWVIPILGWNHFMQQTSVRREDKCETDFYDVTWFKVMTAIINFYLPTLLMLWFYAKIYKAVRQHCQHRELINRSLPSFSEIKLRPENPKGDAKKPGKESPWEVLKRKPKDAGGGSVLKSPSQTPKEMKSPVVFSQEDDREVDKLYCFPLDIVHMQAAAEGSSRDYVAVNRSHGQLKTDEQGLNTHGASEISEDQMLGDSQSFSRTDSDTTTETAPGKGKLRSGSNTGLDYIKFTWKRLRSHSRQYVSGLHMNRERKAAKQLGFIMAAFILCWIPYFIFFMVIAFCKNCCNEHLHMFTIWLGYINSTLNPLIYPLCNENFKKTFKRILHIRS
Procedure, shortened: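 Ki values are Cheng-Prusoff conversions of IC50 (Kd 1.1 nM) from radioligand displacement of 1.2 nM [3H]pyrilamine, with 1.0 μM pyrilamine defining nonspecific binding.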

[4] = biological target: T2, human histamine H1 receptor; assay: Evaluation of Human H1 Receptor Function (GeneBLAzer H1-NFAT-bla HEK 293T cells); type: cell-based; conditions: histamine 30 nM, read-out: Evaluation of H1 Receptor Function (IC50 value, antagonistic effect)
Method: Test Example 3: Evaluation of Human H1 Receptor Function
The antagonistic effect was evaluated by the method described below. GeneBLAzer® H1-NFAT-bla HEK 293T-cells (Invitrogen Corporation, recombinant cells expressing the human histamine H1 receptor) were incubated at 37° C. for 30 minutes in the presence of the test compounds dissolved in DMSO in a high glucose Dulbecco's Modified Eagle Medium (GlutaMAX, containing 10% fetal bovine serum, 100 μM nonessential amino acids, 25 mM HEPES, 100 U/mL penicillin, and 100 μg/mL streptomycin), and histamine was added such that the final concentration became 30 nM, followed by further incubation for 4.5 hours. Then, a mixture of LiveBLAzer™ FRET-B/G Loading Kit (Invitrogen Corporation) and Solution D (Invitrogen Corporation) was added, followed by leaving to stand at room temperature for 2 hours under shaded conditions. Thereafter, the fluorescence intensity was measured under two conditions of 400 nm/460 nm and 400 nm/535 nm (excitation light/fluorescence) by using a multilabel counter (EnVision: PerkinElmer Inc.). The 50% inhibitory concentration (IC50 value) was calculated in accordance with (measured value−blank measured value at 400 nm/460 nm)/(measured value−blank measured value at 400 nm/535 nm) of each test sample.

IC50 [1] [nM] | Ki [2] [nM] | Ki [3] [nM] | IC50 [4] [nM] | Compound
200 to 2000 | < 100 | < 100 | < 200 | Nc1nc2c(c(N3CCN(CCOCc4cccc(C(=O)O)n4)CC3)n1)CCc1cc(OCc3ccc(Cl)cc3)ccc1-2 [18(b), 6-((2-(4-(2-amino-8-((4-chlorobenzyl)oxy)-5,6-dihydrobenzo[h]quinazolin-4-yl)piperazin-1-yl)ethoxy)methyl)picolinic acid bis(trifluoroacetate)]
200 to 2000 | < 100 | < 100 | < 200 | Nc1nc2c(c(N3CCN(CCOCCOCC(=O)O)CC3)n1)CCc1cc(OCc3ccc(Cl)cc3)ccc1-2 [11(b), 2-(2-(2-(4-(2-amino-8-((4-chlorobenzyl)oxy)-5,6-dihydrobenzo[h]quinazolin-4-yl)piperazin-1-yl)ethoxy)ethoxy)acetic Acid]
200 to 2000 | < 100 | < 100 | < 200 | CN1CCN(c2nc(N)nc3c2CCc2cc(NS(=O)(=O)c4ccc(OC(F)(F)F)cc4)ccc2-3)CC1 [Example 54, N-(2-amino-4-(4-methylpiperazin-1-yl)-5,6-dihydrobenzo[h]quinazolin-8-yl)-4-(trifluoromethoxy)benzenesulfonamide]
< 200 | < 100 | < 100 | < 200 | Nc1nc2c(c(N3CCN(CCOCCSCC(=O)O)CC3)n1)CCc1cc(OCc3ccc(OC(F)(F)F)cc3)ccc1-2 [Example 178, 2-((2-(2-(4-(2-amino-8-((4-(trifluoromethoxy)benzyl)oxy)-5,6-dihydrobenzo[h]quinazolin-4-yl)piperazin-1-yl)ethoxy)ethyl)thio)acetic acid]
200 to 2000 | < 100 | < 100 | < 200 | Nc1nc2c(c(N3CCN(CCOCc4cccc(C(=O)O)c4)CC3)n1)CCc1cc(OCc3ccc(Cl)cc3)ccc1-2 [15(b), 3-((2-(4-(2-amino-8-((4-chlorobenzyl)oxy)-5,6-dihydrobenzo[h]quinazolin-4-yl)piperazin-1-yl)ethoxy)methyl)benzoic acid]
200 to 2000 | < 100 | < 100 | < 200 | Nc1nc2c(c(N3CCN(CCOCc4cccc(C(=O)O)c4)CC3)n1)CCc1cc(OCc3ccc(OC(F)(F)F)cc3)ccc1-2 [16(b), 3-((2-(4-(2-amino-8-((4-(trifluoromethoxy)benzyl)oxy)-5,6-dihydrobenzo[h]quinazolin-4-yl)piperazin-1-yl)ethoxy)methyl)benzoic acid]
< 200 | < 100 | < 100 | < 200 | CN1CCN(c2nc(N)nc3c2CCc2cc(OCc4ccc(F)cc4)ccc2-3)CC1 [Example 196, 8-((4-fluorobenzyl)oxy)-4-(4-methylpiperazin-1-yl)-5,6-dihydrobenzo[h]quinazolin-2-amine]
< 200 | < 100 | < 100 | < 200 | Nc1nc2c(c(N3CCN(CCO[C@H]4C[C@@H](CC(=O)O)C4)CC3)n1)CCc1cc(OCc3ccc(OC(F)(F)F)cc3)ccc1-2 [Example 36, cis-2-(3-(2-(4-(2-amino-8-((4-(trifluoromethoxy)benzyl)oxy)-5,6-dihydrobenzo[h]quinazolin-4-yl)piperazin-1-yl)ethoxy)cyclobutyl)acetic acid]
< 200 | < 100 | < 100 | < 200 | Nc1nc2c(c(N3CCN(CCO[C@H]4C[C@@H](C(=O)O)C4)CC3)n1)CCc1cc(OCc3ccc(OC(F)(F)F)cc3)ccc1-2 [23(b), cis-3-(2-(4-(2-amino-8-((4-(trifluoromethoxy)benzyl)oxy)-5,6-dihydrobenzo[h]quinazolin-4-yl)piperazin-1-yl)ethoxy)cyclobutane-1-carboxylic acid]
200 to 2000 | < 100 | < 100 | < 200 | Nc1nc2c(c(N3CCN(CCOCc4ccc(C(=O)O)o4)CC3)n1)CCc1cc(OCc3ccc(OC(F)(F)F)cc3)ccc1-2 [20(b), 5-((2-(4-(2-amino-8-((4-(trifluoromethoxy)benzyl)oxy)-5,6-dihydrobenzo[h]quinazolin-4-yl)piperazin-1-yl)ethoxy)methyl)furan-2-carboxylic acid]
200 to 2000 | < 100 | < 100 | < 200 | Nc1nc2c(c(N3CCN(CCOCCOCc4nn[nH]n4)CC3)n1)CCc1cc(OCc3ccc(Cl)cc3)ccc1-2 [Example 21, 4-(4-(2-(2-((tetrazol-5-yl)methoxy)ethoxy)ethyl)piperazin-1-yl)-8-((4-chlorobenzyl)oxy)-5,6-dihydrobenzo[h]quinazolin-2-amine]

— patent publication US20190047966A1, “NOVEL COMPOUND AND PHARMACOLOGICALLY ACCEPTABLE SALT THEREOF” (MEIJI SEIKA PHARMA CO., LTD., priority 2016, published 2019)
